One sequence from article PMC4326127, “Collagen Inhibitory Peptide R1R2 Mediates Vascular Remodeling by Decreasing Inflammation and Smooth Muscle Cell Activation” (PLoS ONE, 2015) can be followed below.

The subject of one test is collagen. Put plainly: Hydroxyproline assay of carotid collagen content. The note with it: 14 days post-ligation; three carotid arteries pooled per group; colorimetric chloramine T; mean ± SEM, n = 3. It is filed as in vivo, FVB/NJ (FVB) mice. The method, then: (§1) Animals were anesthetized with isoflurane inhalation. The left common carotid artery was exposed, dissected free from the surrounding connective tissue and completely ligated with 6-0 silk suture just proximal to the carotid bifurcation. […] 4–10 mice were included in each experimental group.
After reconstituting with water, samples were measured using a colorimetric chloramine T assay. Three independent experiments were performed for statistical analysis.
(§2) For in vivo experiments, the data are shown as the mean ± SEM. For in vitro experiments, the data shown are the means ± SD of a representative experiment, at least 3 independent experiments were performed. One-way ANOVA with post-hoc testing were used for data analysis with GraphPad Prism software (GraphPad, San Diego, CA). If normality test failed, nonparametric Kruskal-Wallis test followed by Dunn's post-hoc test were used. P > 0.05 was not considered significant.

In another test the test system is U937 cells / HUVECs. Put plainly: Monocyte U937 transendothelial migration assay. It is filed as cell-based, human. The settings on record: HUVECs on 5um transwells, 10 ng/ml TNF-α; U937 1.5x10^5 cells/transwell, 1.5 hours at 37°C; fluorescence 485/535; mean ± SD. The method, then: as §2
The next test deals with ICAM-1. Nature of the test: ICAM-1 IHC in ligated carotid artery. The format is in vivo, FVB/NJ (FVB) mice. The settings on record: 7 days after ligation; percent of positively stained area; mean ± SEM; R1R2 n = 7, control peptide n = 8. The protocol: as §1
(§3) Paraffin sections selected from the first mm of the carotid artery in each group were used for immunohistochemistry (IHC). […] Sections were then incubated with appropriate biotinylated secondary antibodies followed by avidin-biotin immunoperoxidase system (Vector Laboratories, Burlingame, CA). Liquid DAB Substrate Chromogen system (Dako, Carpinteria, CA) was used for detection.
(§4) Quantitative IHC analysis was performed on digital images captured with a 20x objective by using Image-Pro Plus software. Data from 3–6 mice for each group were averaged, and the average values ± SEM were shown. For FN, collagen type I, SM-MHC and SM α-actin, color digital images were transformed into gray scale, and the sum of the optical densities from the intima+media area in each section was determined. […] The percent of positive cells is reported as the proliferation index. […] The intima+media region was traced manually. The percent of positively stained area in intima+media to the total traced area was assessed.
(§5) For in vivo experiments, the data are shown as the mean ± SEM. […]

Test [1] has as its system smooth muscle α-actin (SMAA). Nature of the test: IHC for smooth muscle α-actin in ligated carotid artery. The format is in vivo, FVB/NJ (FVB) mice. The settings on record: 7 days post-ligation; mean ± SEM; scrambled n = 6, R1R2 n = 5 (sham 0.232 ± 0.011, n = 5). The method, then:
as §1, §3, §4, §5

On to “GLNGENQKEPEQGERGEAGPPLSGLSGNNQGRPSLPGLNGENQKEPEQGERGEAGPP [R1R2]”, for which the “collagen content, hydroxyproline assay” value with collagen came out at 1.522 ± 0.077. In the test with U937 cells / HUVECs, this sequence showed a U937 transendothelial migration of 65633 ± 20412 cells per well. Moreover, in the test on ICAM-1, the “ICAM-1 (+) area in intima-media” value is on record as 11.58 ± 2.387%. The “SMAA IHC staining in intima-media area” value in test [1] came to 0.214 ± 0.004.
